From patent US12612386B2, “Heteroaryl-triazole compounds as pesticides” (Bayer Aktiengesellschaft, priority 2020, dated 2026) come the findings set out here.

One may read the mortality as the percentage killed.

Type in all cases: in vivo
For test [1], the system named is adult mosquitoes Aedes aegypti strain MONHEIM. Nature of the test: Aedes aegypti test (AEDSAE surface treatment & contact assay). Particulars: 24 hours after contact, read-out: efficacy (mortality); for mortality at 4 mg/m2: surface concentration 4 mg/m^2, 30 min exposure; for mortality at 20 mg/m2: surface concentration 20 mg/m^2, 30 min exposure. A digest of the protocol:
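Compound in acetone containing 2000 ppm rapeseed oil methyl ester applied to a glazed tile and dried; adult mosquitoes exposed on the treated surface for 30 minutes. Percent mortality scored 24 hours after contact (100% = all dead, 0% = none dead).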

For test [2], the system named is cattle tick larvae (Rhipicephalus microplus), strain Parkhurst, resistant against synthetic pyrethroids. Nature of the test: Rhipicephalus (Boophilus) microplus in-vitro contact test, larval cattle tick. The settings on record: 5 μg/cm^2 (=500 g/ha), after 48 hours. An outline of the steps:
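After drying, 20-50 larvae were held per tube at 27° C., 85% relative humidity for 48 h, and efficacy was scored as % dead or moribund.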

Test [3] concerns larvae of the banded cucumber beetle (Diabrotica balteata). Nature of the test: Diabrotica balteata spray test. The settings on record: 168 h, 100 g/ha (=32 μg/well), after 7 days, read-out: efficacy (seedling growth). An outline of the steps:
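Germinated wheat seeds on agar (5 per well) were sprayed with compound formulated in acetone/DMF and diluted in water with 1000 ppm emulsifier. Each unit was then infested with 10–20 larvae. Efficacy % was scored after 7 days as seedling growth relative to an untreated, uninfested control (100% = normal growth).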

Test [4] relates to adult flies Musca domestica strain WHO-N. Nature of the test: Musca domestica test (MUSCDO surface treatment & contact assay). The settings on record: 24 hours after contact, read-out: efficacy (mortality); for mortality at 4 mg/m2: surface concentration 4 mg/m^2, 30 min exposure; for mortality at 20 mg/m2: surface concentration 20 mg/m^2, 30 min exposure. Here is the method:
Musca domestica Test (MUSCDO Surface Treatment & Contact Assay)
(§1) Solvent: Aceton+2000 ppm rapeseed oil methyl ester (RME)
This solution is pipetted onto a glazed tile and after evaporation of the acetone, adult flies of the species Musca domestica strain WHO-N are placed onto the dried surface. The exposure time is 30 minutes. Mortality in percent (%) is determined 24 hours after contact of the insects to the treated surface. 100% mortality means that all tested insects are dead, whereas 0% means that no insect died.

Test [5] relates to adult animals Blattella germanica strain PAULINIA
Nature of the test: Blattella germanica test (BLTTGE surface treatment & contact assay). The settings on record: 24 hours after contact, read-out: efficacy (mortality); for mortality at 4 mg/m2: surface concentration 4 mg/m^2, 30 min exposure; for mortality at 20 mg/m2: surface concentration 20 mg/m^2, 30 min exposure. As for the experimental part: Blattella germanica Test (BLTTGE Surface Treatment & Contact Assay)
as §1
In order to produce a sufficient, active ingredient containing solution it is necessary to solve the test compound in the solvent-mix (acetone at 2 mg/ml/RME 2000 ppm). This solution is pipetted onto a glazed tile and after evaporation of the acetone, adult animals of the species Blattella germanica strain PAULINIA are placed onto the dried surface. The exposure time is 30 minutes.
Mortality in percent (%) is determined 24 hours after contact of the insects to the treated surface. 100% mortality means that all tested insects are dead, whereas 0% means that no insect died.

Test [6] concerns green peach aphid (Myzus persicae). Nature of the test: Myzus persicae spray test (MYZUPE). The settings on record: 120 h, 100 g/ha, after 5 days. A digest of the protocol:
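Chinese cabbage leaf disks infested with all instars of Myzus persicae were sprayed with compound formulated in acetone/dimethylformamide and diluted in water with 1000 ppm alkylarylpolyglycol ether emulsifier. Percent mortality was scored after 5 days, 100% meaning all aphids killed.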

The test system of test [7] is fall armyworm larvae (Spodoptera frugiperda). Nature of the test: whole plant or invertebrate. Particulars: 168 h; for Emax at 20 g/ha: SPODFR, 20 g ai/ha, 7 dat (Table 3), read-out: % Efficacy. An outline of the steps:
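Maize leaf sections sprayed with compound in acetone/DMF with alkylarylpolyglycol ether emulsifier diluted in water, then infested with fall armyworm larvae once dry. Mortality (%) scored after 7 days; 100% = all caterpillars killed.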

Test [8] relates to brown planthopper (Nilaparvata lugens). Nature of the test: Nilaparvata lugens spray test. Particulars: 96 h. An outline of the steps:
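Rice plants (Oryza sativa) sprayed with compound formulated in acetone/DMF with alkylarylpolyglycol ether emulsifier (1000 ppm in diluting water), then infested with planthoppers. Mortality (%) scored after 4 days; 100% = all insects killed, 0% = none killed.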

The test system of test [9] is adult cat fleas (Ctenocephalides felis). Nature of the test: Ctenocephalides felis in-vitro contact test, adult cat flea. Particulars: 5 μg/cm^2 (=500 g/ha), after 48 hours. An outline of the steps: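 Acetone solutions of compound were coated onto inner walls of glass tubes (900 ppm giving 5 μg/cm^2) and dried; 5-10 adult C. felis were then held 48 h at room temperature. Efficacy = % fleas dead or moribund, judged by inability to escape a 45-50° C heating plate within 5 min.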

The test system of test [10] is larvae of the southern green stink bug (Nezara viridula). Nature of the test: whole plant or invertebrate. Particulars: 96 h. An outline of the steps: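 Compound in acetone/DMF was diluted in water with 1000 ppm alkylarylpolyglycol ether emulsifier. Barley plants were sprayed with it, then infested with Nezara viridula larvae. Mortality % was scored after 4 days (100% = all killed).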

Test [11] concerns adult mosquitoes Culex quinquefasciatus strain P00. Nature of the test: Culex quinquefasciatus test (CULXFA surface treatment & contact assay). Particulars: 24 hours after contact, read-out: efficacy (mortality); for mortality at 4 mg/m2: surface concentration 4 mg/m^2, 30 min exposure; for mortality at 20 mg/m2: surface concentration 20 mg/m^2, 30 min exposure. Here is the method:
Culex quinquefasciatus Test (CULXFA Surface Treatment & Contact Assay)
as §1
This solution is pipetted onto a glazed tile and after evaporation of the acetone, adult mosquitoes of the species Culex quinquefasciatus strain P00 are placed onto the dried surface. The exposure time is 30 minutes. Mortality in percent (%) is determined 24 hours after contact of the insects to the treated surface. 100% mortality means that all tested insects are dead, whereas 0% means that no insect died.

Test [12] relates to adult brown dog ticks (Rhipicephalus sanguineus). Nature of the test: Rhipicephalus sanguineus in-vitro contact test, adult brown dog ticks. Particulars: 48 h, read-out: efficacy (ticks dead or moribund). A digest of the protocol:
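Compound in acetone was coated onto inner walls of glass tubes by rotation (2 h, 30 rpm); 900 ppm gives 5 μg/cm^2. After drying, 5-10 adult ticks were enclosed per tube at room temperature; after 48 h, heat-escape test at 45-50° C scored dead/moribund ticks as % efficacy.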

Test [13] has as its system green peach aphid (Myzus persicae). Nature of the test: whole plant or invertebrate. Particulars: 120 h, MYZUPE oral, 0.16 ppm, 5 dat (Table 3), read-out: % Efficacy. As for the experimental part: Solvent: 100 parts by weight acetone
To produce a suitable preparation of active compound, 1 part by weight of active compound is mixed with the stated amount of solvent, and the concentrate is diluted with water to the desired concentration.
50 μL compound solution is filled in microtiter plates and 150 μL IPL41 insect medium (33%+15% sugar) is added to obtain a total volume of 200 μL per well. Afterwards the plates are sealed with parafilm through which a mixed population of the green peach aphid (Myzus persicae) can suck on the compound preparation.
After 5 days mortality in % is determined. 100% means all aphids have been killed and 0% means none of the aphids have been killed.
Myzus persicae—Oral Test (MYZUPE Oral)

On to `C[C@H](NC(=O)c1cc(Br)cc(OC(F)F)c1)c1ncnn1-c1cc(C(N)=O)ncn1` [I-51], for which the mortality at 4 mg/m2 in test [1], in test [4], in test [5] and in [11] was 80 to 100% throughout. For the same compound, the mortality at 20 mg/m2 in test [1], in test [4], in test [5] and in test [11] was 80 to 100% each time. Besides, in test [2], the “efficacy (larvae dead or moribund)” value stood at 100%. In test [3], the pest or weed control at 32 µg/disc, 100 g/ha came to 100%. Further, the mortality at 100 g/ha in test [6] was 90%; in test [7], 100%; in [10] it was 100%. For the same compound, the mortality at 500 g/ha in [8] and in test [10] was 100% in each case. Besides, in test [9], the “efficacy (fleas dead or moribund)” value worked out at 100%. The pest or weed control at 5 µg/cm2, 500 g/ha in test [12] worked out at 100%.
In the case of `CNC(=O)c1cc(-n2ncnc2[C@H](C)NC(=O)c2cc(Cl)cc(OC(F)(F)F)c2)ncn1` [I-73], the mortality at 4 mg/m2 in [1], in test [4], in [5] and in test [11] was 80 to 100% each time. Further, the mortality at 20 mg/m2 in test [1], in test [4], in test [5] and in test [11] was 80 to 100% in each case. Besides, the “efficacy (larvae dead or moribund)” value in test [2] came to 100%. Besides, the pest or weed control at 32 µg/disc, 100 g/ha in test [3] was found to be 100%. Moreover, the figures for the mortality at 100 g/ha in [6] and in test [7] were 70% and 100%, respectively. For the same compound, the mortality at 500 g/ha in test [8] and in test [10] was 100% in each case. The “efficacy (fleas dead or moribund)” value in test [9] was found to be 100%. Moreover, the pest or weed control at 5 µg/cm2, 500 g/ha in [12] came out at 100%.
As to `CNC(=O)c1cc(-n2ncnc2[C@H](C)NC(=O)c2cc(Br)cc(OC(F)(F)F)c2)ncn1` [I-74], the mortality at 4 mg/m2 in test [1], in test [4], in test [5] and in test [11] was 80 to 100% each time. Also, the mortality at 20 mg/m2 in test [1], in [4], in [5] and in [11] was 80 to 100% throughout. In addition, the “efficacy (larvae dead or moribund)” value in [2] came to 100%. In [3], the pest or weed control at 32 µg/disc, 100 g/ha is 80%. Also, the values for the mortality at 100 g/ha in test [6] and in test [7] were 90% and 100%, respectively. In addition, the mortality at 500 g/ha in test [8] and in [10] was 100% throughout. In addition, in [9], the “efficacy (fleas dead or moribund)” value is 100%. Besides, in [12], the pest or weed control at 5 µg/cm2, 500 g/ha was 100%.
Regarding `C[C@H](NC(=O)c1cc(OC(F)(F)F)cc(OC(F)(F)F)c1)c1ncnn1-c1cc(C(N)=O)ncn1` [I-102], the mortality at 4 mg/m2 in [1], in test [4], in test [5] and in test [11] was 80 to 100% throughout. In addition, the mortality at 20 mg/m2 in test [1], in [4], in test [5] and in test [11] was 80 to 100% each time. In addition, in [2], the “efficacy (larvae dead or moribund)” value is 100%. Moreover, the pest or weed control at 32 µg/disc, 100 g/ha in test [3] came to 100%. The mortality at 100 g/ha in [6] and in test [7] was 100% each time. The mortality at 500 g/ha in test [8] was found to be 90%; in test [10], 100%. Further, in test [9], the “efficacy (fleas dead or moribund)” value is on record as 100%. For the same compound, the pest or weed control at 5 µg/cm2, 500 g/ha in test [12] was 80%.
For `C[C@H](NC(=O)c1cc(Cl)cc(S(C)(=O)=O)c1)c1ncnn1-c1ccncn1` [I-146 Known from WO 2019197468, reference compound], the Emax at 0.16 ppm in [13] stood at 0%. Besides, in [7], the Emax at 20 g/ha was found to be 33%.
Regarding `C[C@H](NC(=O)c1cc(Cl)cc(S(C)(=O)=O)c1)c1ncnn1-c1cc(C#N)ccn1` [I-148 Known from WO 2019197468, reference compound], the Emax at 0.16 ppm in test [13] was determined as 0%. The Emax at 20 g/ha in test [7] worked out at 33%.
